Measurements published in ChEMBL document CHEMBL5465560, “Selectivity Literature for EUbOPEN Chemogenomic Library” (2024).
One block for each molecule: values may come before it.

Assays:
[1] = molecular target: Mitogen-activated protein kinase 7 (Homo sapiens) (UniProt Q13164); experiment: Selectivity interaction (KinomeScan (DiscoverX)) EUB0001049a MAPK7; conditions: at 1 µM
Misshapen-like kinase 1 = Misshapen-like kinase 1 (Homo sapiens, UniProt Q8N4C8); experiment: Selectivity interaction (KinomeScan (DiscoverX)) EUB0001049a MINK1; conditions: at 1 µM
[2] = molecular target: Casein kinase I isoform gamma-1 (Homo sapiens) (UniProt Q9HCP0); experiment: Selectivity interaction (KinomeScan (DiscoverX)) EUB0001049a CSNK1G1; conditions: at 1 µM
[3] = molecular target: 5-hydroxytryptamine receptor 1A (Homo sapiens, UniProt P08908); experiment: Selectivity interaction (Serotonin 5HT1A Calcium flux assay, agonist and antagonist mode ) EUB0000877a HTR1A
[4] = molecular target: Tyrosine-protein kinase JAK1 (Homo sapiens, UniProt P23458); experiment: Selectivity interaction (KinomeScan (DiscoverX)) EUB0000695a JAK1; conditions: at 100 nM
Tyrosine-protein kinase JAK1, sequence (P23458 whole entry): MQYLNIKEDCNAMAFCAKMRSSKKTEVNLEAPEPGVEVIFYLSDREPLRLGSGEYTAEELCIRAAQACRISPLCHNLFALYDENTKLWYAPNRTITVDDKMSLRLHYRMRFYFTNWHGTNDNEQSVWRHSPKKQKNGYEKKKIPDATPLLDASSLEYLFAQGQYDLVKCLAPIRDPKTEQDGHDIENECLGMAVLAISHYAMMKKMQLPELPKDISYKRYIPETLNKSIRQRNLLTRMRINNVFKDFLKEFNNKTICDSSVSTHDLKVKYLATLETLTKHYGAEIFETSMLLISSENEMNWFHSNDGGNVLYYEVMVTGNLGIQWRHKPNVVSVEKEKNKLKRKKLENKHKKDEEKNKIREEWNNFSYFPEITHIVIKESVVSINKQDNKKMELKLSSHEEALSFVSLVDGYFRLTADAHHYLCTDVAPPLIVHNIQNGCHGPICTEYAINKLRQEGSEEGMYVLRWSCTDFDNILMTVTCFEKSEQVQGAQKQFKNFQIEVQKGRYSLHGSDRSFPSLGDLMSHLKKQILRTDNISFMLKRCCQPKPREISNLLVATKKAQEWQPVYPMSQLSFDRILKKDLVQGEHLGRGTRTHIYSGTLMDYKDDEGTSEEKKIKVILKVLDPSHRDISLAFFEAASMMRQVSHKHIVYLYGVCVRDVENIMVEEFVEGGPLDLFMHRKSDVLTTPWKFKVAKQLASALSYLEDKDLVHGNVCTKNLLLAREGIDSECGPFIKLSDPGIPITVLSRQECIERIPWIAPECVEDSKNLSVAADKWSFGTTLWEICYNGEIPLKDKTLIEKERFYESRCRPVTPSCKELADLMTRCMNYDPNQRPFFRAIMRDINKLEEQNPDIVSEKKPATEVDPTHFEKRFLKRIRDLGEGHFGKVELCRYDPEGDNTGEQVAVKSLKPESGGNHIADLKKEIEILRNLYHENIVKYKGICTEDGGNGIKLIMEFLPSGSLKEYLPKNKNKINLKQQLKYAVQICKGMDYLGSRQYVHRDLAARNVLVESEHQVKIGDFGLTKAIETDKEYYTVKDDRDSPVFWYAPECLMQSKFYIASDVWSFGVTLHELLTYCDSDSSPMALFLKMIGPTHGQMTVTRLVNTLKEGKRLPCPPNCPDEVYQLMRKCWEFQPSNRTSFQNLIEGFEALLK

[5] = molecular target: Leucine-rich repeat serine/threonine-protein kinase 2 (Homo sapiens, UniProt Q5S007); experiment: (§1) Selectivity interaction (KinomeScan (DiscoverX)) EUB0001079a LRRK2; conditions: at 1 µM
[6] = tested on: Leucine-rich repeat serine/threonine-protein kinase 2 (Homo sapiens), Q5S007 [G2019S]; experiment: as §1; conditions: at 1 µM
[7] = molecular target: T1, Serine/threonine-protein kinase Nek9 (Homo sapiens) (UniProt Q8TD19); experiment: Selectivity interaction (KinomeScan (DiscoverX)) EUB0000092b NEK9; conditions: at 10 µM
T1 sequence (whole entry): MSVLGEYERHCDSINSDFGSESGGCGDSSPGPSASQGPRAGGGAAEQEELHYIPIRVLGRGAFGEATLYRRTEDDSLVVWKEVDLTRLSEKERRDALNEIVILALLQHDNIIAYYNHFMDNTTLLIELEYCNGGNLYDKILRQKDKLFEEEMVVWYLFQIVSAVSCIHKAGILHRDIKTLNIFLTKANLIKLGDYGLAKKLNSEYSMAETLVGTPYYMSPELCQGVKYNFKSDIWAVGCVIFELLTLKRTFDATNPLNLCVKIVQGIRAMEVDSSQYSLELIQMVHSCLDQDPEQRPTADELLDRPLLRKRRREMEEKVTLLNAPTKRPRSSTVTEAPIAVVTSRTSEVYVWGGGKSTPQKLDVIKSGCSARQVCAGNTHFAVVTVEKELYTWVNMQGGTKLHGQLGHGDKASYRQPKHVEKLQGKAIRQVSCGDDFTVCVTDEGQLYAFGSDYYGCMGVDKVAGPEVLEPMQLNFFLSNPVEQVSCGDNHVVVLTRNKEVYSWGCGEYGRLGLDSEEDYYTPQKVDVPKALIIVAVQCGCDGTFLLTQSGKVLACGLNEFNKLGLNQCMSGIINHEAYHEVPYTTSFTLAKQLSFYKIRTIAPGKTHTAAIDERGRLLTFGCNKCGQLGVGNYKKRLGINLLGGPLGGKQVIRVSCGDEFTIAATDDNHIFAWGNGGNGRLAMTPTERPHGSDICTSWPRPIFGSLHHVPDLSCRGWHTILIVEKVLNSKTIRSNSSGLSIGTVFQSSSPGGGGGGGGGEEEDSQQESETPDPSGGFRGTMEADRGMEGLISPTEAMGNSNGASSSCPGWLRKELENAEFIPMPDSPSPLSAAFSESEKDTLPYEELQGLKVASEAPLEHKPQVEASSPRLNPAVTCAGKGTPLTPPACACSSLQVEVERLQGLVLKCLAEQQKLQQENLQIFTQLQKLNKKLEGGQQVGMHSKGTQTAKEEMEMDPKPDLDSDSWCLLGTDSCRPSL

[8] = molecular target: Mitogen-activated protein kinase kinase kinase 1 (Homo sapiens, UniProt Q13233); experiment: Selectivity interaction (KinomeScan (DiscoverX)) EUB0000092b MAP3K1; conditions: at 10 µM
[9] = molecular target: Ribosomal protein S6 kinase alpha-6 (Homo sapiens, UniProt Q9UK32); experiment: Selectivity interaction (KinomeScan (DiscoverX)) EUB0000655a RPS6KA6; conditions: at 10 µM
[10] = molecular target: Serine/threonine-protein kinase 16 (Homo sapiens, UniProt O75716); experiment: Selectivity interaction (KinomeScan (DiscoverX)) EUB0000655a STK16; conditions: at 10 µM
Serine/threonine-protein kinase 16, sequence (O75716 whole entry): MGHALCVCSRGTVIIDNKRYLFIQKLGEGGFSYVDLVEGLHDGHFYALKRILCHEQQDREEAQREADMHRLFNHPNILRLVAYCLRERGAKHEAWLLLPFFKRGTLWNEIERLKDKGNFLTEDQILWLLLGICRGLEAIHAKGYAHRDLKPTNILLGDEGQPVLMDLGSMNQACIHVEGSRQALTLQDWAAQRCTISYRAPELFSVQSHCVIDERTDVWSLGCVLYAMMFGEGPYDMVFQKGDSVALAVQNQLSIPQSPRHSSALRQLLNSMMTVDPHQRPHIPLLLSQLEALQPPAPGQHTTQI

[11] = molecular target: 1-phosphatidylinositol 3-phosphate 5-kinase (Homo sapiens) (UniProt Q9Y2I7); experiment: Selectivity interaction (ActivX KiNativ screen (ex vivo kinase selectivity in human PBMCs)) EUB0001619a PIKFYVE; type: cell-based; conditions: PBMC, at 1 µM
1-phosphatidylinositol 3-phosphate 5-kinase (Homo sapiens), sequence (Q9Y2I7 whole entry): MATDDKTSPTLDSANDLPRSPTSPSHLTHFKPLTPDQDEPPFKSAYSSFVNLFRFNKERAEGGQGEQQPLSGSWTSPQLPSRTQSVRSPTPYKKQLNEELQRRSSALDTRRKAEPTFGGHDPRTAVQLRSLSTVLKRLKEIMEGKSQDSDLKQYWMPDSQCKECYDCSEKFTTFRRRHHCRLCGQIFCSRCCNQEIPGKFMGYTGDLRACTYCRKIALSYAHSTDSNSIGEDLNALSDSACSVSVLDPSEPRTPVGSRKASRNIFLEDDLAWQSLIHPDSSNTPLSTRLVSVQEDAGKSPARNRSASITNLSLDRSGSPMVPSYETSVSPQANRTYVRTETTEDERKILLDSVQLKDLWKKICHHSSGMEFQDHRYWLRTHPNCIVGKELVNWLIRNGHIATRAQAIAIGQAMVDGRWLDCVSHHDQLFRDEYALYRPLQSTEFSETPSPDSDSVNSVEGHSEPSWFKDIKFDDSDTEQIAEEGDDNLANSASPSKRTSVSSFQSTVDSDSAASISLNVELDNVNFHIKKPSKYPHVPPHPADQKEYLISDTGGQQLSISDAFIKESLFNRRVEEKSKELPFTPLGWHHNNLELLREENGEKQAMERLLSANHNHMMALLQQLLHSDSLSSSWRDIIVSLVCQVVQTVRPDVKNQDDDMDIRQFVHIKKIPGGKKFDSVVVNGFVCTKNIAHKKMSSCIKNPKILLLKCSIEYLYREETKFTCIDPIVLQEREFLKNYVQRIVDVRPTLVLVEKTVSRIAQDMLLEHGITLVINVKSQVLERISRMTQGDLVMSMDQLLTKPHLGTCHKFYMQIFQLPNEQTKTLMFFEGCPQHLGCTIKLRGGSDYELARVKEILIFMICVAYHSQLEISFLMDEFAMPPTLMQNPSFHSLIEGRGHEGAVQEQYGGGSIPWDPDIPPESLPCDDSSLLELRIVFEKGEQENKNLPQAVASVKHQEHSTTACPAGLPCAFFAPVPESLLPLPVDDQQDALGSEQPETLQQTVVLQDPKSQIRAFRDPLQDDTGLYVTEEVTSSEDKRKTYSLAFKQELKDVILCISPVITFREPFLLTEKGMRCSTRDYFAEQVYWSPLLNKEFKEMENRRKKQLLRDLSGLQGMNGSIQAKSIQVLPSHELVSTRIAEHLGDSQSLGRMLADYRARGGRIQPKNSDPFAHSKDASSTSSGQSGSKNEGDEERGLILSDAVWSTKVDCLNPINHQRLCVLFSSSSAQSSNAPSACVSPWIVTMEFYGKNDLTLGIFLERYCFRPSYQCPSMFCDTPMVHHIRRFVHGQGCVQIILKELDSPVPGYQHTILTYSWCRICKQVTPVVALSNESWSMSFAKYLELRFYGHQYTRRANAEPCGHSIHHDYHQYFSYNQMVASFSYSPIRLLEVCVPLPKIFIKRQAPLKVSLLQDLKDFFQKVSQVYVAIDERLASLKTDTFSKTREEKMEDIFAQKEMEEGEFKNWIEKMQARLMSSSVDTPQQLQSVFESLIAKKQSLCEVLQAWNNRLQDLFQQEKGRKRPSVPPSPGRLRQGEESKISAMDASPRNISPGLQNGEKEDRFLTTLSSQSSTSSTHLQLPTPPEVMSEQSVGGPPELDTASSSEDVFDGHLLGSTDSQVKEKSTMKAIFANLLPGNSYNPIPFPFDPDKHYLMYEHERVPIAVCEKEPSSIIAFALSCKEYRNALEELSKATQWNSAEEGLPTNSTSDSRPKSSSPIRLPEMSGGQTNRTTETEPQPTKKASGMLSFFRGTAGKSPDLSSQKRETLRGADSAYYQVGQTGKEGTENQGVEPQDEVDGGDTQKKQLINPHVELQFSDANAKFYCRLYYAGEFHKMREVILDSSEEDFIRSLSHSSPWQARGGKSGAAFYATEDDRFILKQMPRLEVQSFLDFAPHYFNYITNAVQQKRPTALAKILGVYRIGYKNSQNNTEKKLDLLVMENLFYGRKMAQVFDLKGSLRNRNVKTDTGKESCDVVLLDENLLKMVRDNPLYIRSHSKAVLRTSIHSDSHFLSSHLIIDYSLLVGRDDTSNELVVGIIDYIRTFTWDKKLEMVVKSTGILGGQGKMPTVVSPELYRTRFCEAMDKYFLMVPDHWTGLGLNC

[12] = molecular target: Tyrosine-protein kinase CSK (Homo sapiens) (UniProt P41240); experiment: Selectivity interaction (SelectScreen profiling (Invitrogen)) EUB0000607a CSK; conditions: at 2 µM
[13] = molecular target: T2, Serine/threonine-protein kinase D2 (Homo sapiens) (UniProt Q9BZL6); experiment: Selectivity interaction (Kinase panel (KiNativ target engagement assay in Jurkat cells)) EUB0001635a PRKD2; type: cell-based; conditions: at 1 µM
T2 sequence (whole entry): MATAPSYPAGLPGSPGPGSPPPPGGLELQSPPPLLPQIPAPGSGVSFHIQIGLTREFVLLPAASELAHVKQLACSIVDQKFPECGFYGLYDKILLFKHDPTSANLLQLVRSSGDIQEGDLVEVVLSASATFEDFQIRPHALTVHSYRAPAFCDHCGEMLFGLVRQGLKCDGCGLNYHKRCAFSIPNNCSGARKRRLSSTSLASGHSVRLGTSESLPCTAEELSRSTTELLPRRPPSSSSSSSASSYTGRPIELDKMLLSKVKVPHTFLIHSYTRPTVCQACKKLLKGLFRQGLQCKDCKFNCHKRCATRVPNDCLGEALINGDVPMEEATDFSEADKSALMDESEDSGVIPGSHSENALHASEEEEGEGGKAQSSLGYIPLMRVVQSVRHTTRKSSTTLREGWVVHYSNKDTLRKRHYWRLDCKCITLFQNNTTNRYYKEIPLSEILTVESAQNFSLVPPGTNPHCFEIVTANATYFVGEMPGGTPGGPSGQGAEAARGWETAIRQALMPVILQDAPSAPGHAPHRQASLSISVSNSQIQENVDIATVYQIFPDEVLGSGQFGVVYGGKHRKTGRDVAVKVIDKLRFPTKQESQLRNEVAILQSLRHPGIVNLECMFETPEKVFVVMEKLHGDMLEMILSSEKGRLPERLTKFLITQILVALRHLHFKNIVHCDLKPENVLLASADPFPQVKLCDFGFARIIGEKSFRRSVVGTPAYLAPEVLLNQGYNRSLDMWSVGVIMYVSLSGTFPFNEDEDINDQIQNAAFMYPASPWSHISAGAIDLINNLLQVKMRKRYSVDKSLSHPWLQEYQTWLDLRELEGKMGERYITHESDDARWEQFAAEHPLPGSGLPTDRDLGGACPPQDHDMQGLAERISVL

[14] = molecular target: Glycogen synthase kinase-3 beta (Homo sapiens, UniProt P49841); experiment: Selectivity interaction (Kinase panel (DSF assay)) EUB0001558a GSK3B
Glycogen synthase kinase-3 beta, sequence (P49841 whole entry, looked up): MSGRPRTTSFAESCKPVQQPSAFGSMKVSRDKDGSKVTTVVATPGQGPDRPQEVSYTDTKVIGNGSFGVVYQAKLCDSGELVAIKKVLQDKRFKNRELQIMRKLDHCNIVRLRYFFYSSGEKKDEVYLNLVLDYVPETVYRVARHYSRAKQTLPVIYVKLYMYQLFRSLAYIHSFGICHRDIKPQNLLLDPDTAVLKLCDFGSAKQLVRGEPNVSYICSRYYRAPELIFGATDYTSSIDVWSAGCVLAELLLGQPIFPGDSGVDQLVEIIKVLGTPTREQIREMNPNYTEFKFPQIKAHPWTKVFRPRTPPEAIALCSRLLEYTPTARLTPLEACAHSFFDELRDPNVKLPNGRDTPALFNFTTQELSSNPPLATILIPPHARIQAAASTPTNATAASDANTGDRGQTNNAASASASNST

Mitogen-activated protein kinase 7 (Homo sapiens), sequence (Q13164 2-816 limits assumed): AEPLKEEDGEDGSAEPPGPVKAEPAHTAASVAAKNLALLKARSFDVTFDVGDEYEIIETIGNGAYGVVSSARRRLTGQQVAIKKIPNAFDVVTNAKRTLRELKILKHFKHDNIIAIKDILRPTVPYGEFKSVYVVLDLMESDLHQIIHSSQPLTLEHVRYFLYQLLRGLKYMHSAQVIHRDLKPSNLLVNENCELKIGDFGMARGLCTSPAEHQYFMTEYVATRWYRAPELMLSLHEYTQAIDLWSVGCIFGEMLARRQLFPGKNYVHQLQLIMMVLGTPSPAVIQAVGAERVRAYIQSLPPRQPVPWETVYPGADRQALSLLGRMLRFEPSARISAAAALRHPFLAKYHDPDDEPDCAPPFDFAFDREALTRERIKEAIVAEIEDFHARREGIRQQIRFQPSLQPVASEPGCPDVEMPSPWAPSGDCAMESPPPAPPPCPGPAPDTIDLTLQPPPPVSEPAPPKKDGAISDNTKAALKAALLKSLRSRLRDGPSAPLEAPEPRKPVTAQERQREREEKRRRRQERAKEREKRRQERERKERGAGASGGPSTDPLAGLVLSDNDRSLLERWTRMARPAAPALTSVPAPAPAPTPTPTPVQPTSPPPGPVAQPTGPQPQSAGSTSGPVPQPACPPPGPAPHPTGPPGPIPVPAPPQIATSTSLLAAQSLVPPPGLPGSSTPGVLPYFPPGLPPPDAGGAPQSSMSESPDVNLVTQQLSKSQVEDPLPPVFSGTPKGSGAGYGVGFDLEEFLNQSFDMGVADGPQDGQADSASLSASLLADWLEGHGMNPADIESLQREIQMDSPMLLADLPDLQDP

SMILES: COc1cc(Nc2nc(C)cc(-c3cnn4nc(OC)ccc34)n2)cc(C(F)(F)F)c1
% of control [1]: 83%
% of control (Misshapen-like kinase 1): 79%
% of control [2]: 100%

IC50 [3]: > 30 µM
SMILES: CCC(=O)N1CC[C@H](Nc2ncnc3c2CN(c2cnc(OC)c(C(F)(F)F)c2)CC3)C1 [LENIOLISIB]

SMILES: Cc1cc(F)c(C(=O)Nc2cccc(-c3nncn3C(C)C)n2)cc1-n1cnc(C2CC2)c1
% of control [4]: 93%

SMILES: Nc1cnc(N2CCc3cc(S(=O)(=O)Nc4c(F)cc(Cl)cc4F)cc(N4CCCC4=O)c32)nc1 [TP-020n]
% of control [5]: 97%
% of control [6]: 81%

SMILES: CCC(=O)N1CCN(c2ccc(-n3c(=O)ccc4cnc5ccc(-c6cnc7ccccc7c6)cc5c43)cc2C(F)(F)F)CC1
% of control [7]: 100%
% of control [8]: 92%

SMILES: CN(C)CCOc1ccc(-c2nc(-c3ccncc3)c(-c3ccc4c(c3)CC/C4=N\O)[nH]2)cc1
% of control [9]: 88%
% of control [10]: 94%

SMILES: N#Cc1cccc(-c2c[nH]c3ncnc(N4CCOCC4)c23)c1
% of inhibition [11]: 22%

SMILES: CNC(=O)Nc1ccc(-c2nc(N3CC4CCC(C3)O4)c3cnn(C4CCC5(CC4)OCCO5)c3n2)cc1
% of inhibition [12]: -1%

SMILES: C=CC(=O)Nc1ccc(C(=O)Nc2[nH]nc3c2CN(C(=O)N[C@H](CN(C)C)c2ccccc2)C3(C)C)cc1
% of engagement [13]: -4.9%

SMILES: CC(C)(O)[C@H](F)CN1Cc2cc(NC(=O)c3cnn4cccnc34)c(N3CCOCC3)cc2C1=O
dTM [14]: 0.9 K
